Test results: patent publication US5049494A, “Conversion of mannose to fructose” (Allied-Signal Inc., priority 1989, dated 1991)

The molecules below were run on immobilized mannose isomerase. Details: 0.4 g immobilized enzyme, 40° C., 5 ml of 0.1M sugar solution, after 18 hours.
Procedure: Mannose isomerase activity was typically determined at 40° C. using a feedstock containing 0.1M D-mannose and 0.2M Tris buffer at pH 6.5. Mannose isomerase activity was determined in extracts primarily by measuring mannose-dependent formation of fructose according to the method described by J. H. Roe, J Biol. Chem. 107: 15-19 (1934). Assay mixtures (1 ml) containing 200 mM Tris buffer, pH 7, 100 mM D-mannose, and appropriately diluted cell extract were incubated at 40° C. After 15 min., 0.2 ml of each reaction mixture was transferred to a separate tube and 0.2 ml of ethanol containing 0.1% (wt/vol) resorcinol and 0.6 ml of 10N HCl was added. The tubes were incubated at 80° C. for 8 min, and then placed in ice water to stop the reaction. The absorbance at 484 nm was determined and compared to a standard curve relating absorbance to fructose concentration. An absorbance of 0.1 was equivalent to 150 nmoles of fructose per ml of assay mixture. The conversion of mannose to fructose (as well as any reactions with other sugars) was also determined using HPLC and known standards.
A similar set of experiments was used to test the behavior of the enzyme in the presence of other sugar substrates. For such experiments a mixed sugar feed was prepared approximating the ratios of hemicellulose-derived sugars identified in sulfite waste liquor streams and containing (in grams per liter of 0.2M Tris buffer at pH 7) galactose (15.9), glucose (15.9), mannose (40.3), arabinose (8.0), and xylose (15.2),.

Row | SMILES | loss of sugar
1 | O=C[C@H](O)[C@@H](O)[C@H](O)CO [D-xylose] | no detectable loss
2 | O=C[C@@H](O)[C@@H](O)[C@H](O)CO [D-lyxose] | no detectable loss
3 | O=C[C@H](O)[C@@H](O)[C@@H](O)[C@H](O)CO [D-galactose] | no detectable loss

Continued, values first:

Row | loss of sugar | SMILES
4 | no detectable loss | O=C[C@H](O)[C@@H](O)[C@@H](O)CO [L-arabinose]
5 | no detectable loss | C[C@H](O)[C@H](O)[C@@H](O)[C@@H](O)C=O [L-rhamnose]
6 | no detectable loss | O=C[C@H](O)[C@H](O)[C@@H](O)[C@@H](O)CO [L-mannose]
7 | no detectable loss | O=C(CO)[C@@H](O)[C@H](O)CO [D-xylulose]
